Assay results taken from PubChem BioAssay AID1963960 (Molecular Pharmacology Branch, DTP, NCI, 2024).

Test system: MDA-MB-468 spheroids with HUVEC/MSC, viability
Assay: Anticancer human tumor MDA-MB-468 cell line growth inhibition [PI3K];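 also: spheroids exposed to agents for seven days before readout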;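 as to viability, T/C: 100% = DMSO vehicle control viability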
Details: for IC50: curve of first compound; for viability, T/C: stronger effect = lower value
How it was run: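 Viability of mixed-cell spheroids was determined after exposure to pairwise combinations, one partner being inavolisib, alpelisib, duvelisib or copanlisib. Highest tested concentration matched clinical Cmax where known and 10 microM where not, descending in half-log steps.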

[1] = second compound 0.00316 µM, first compound 0.0316 µM
[2] = second compound 0.00316 µM, first compound 0.1 µM
[3] = second compound 0.00316 µM, first compound 0.316 µM
[4] = second compound 0.00316 µM, first compound 1 µM
[5] = second compound 0.00316 µM, first compound 3.16 µM
[6] = second compound 0.00316 µM, first compound 10 µM
[7] = second compound 0.01 µM, first compound 0.0316 µM
[8] = second compound 0.01 µM, first compound 0.1 µM
[9] = second compound 0.01 µM, first compound 0.316 µM
[10] = second compound 0.01 µM, first compound 1 µM
[11] = second compound 0.01 µM, first compound 3.16 µM
[12] = second compound 0.01 µM, first compound 10 µM
[13] = second compound 0.0316 µM, first compound 0.0316 µM
[14] = second compound 0.0316 µM, first compound 0.1 µM
[15] = second compound 0.0316 µM, first compound 0.316 µM
[16] = second compound 0.0316 µM, first compound 1 µM
[17] = second compound 0.0316 µM, first compound 3.16 µM
[18] = second compound 0.0316 µM, first compound 10 µM
[19] = second compound 0.1 µM, first compound 0.0316 µM
[20] = second compound 0.1 µM, first compound 0.1 µM
[21] = second compound 0.1 µM, first compound 0.316 µM
[22] = second compound 0.1 µM, first compound 1 µM
[23] = second compound 0.1 µM, first compound 3.16 µM
[24] = second compound 0.1 µM, first compound 10 µM
[25] = second compound 0.316 µM, first compound 0.0316 µM
[26] = second compound 0.316 µM, first compound 0.1 µM
[27] = second compound 0.316 µM, first compound 0.316 µM
[28] = second compound 0.316 µM, first compound 1 µM
[29] = second compound 0.316 µM, first compound 3.16 µM
[30] = second compound 0.316 µM, first compound 10 µM
[31] = second compound 1 µM, first compound 0.0316 µM
[32] = second compound 1 µM, first compound 0.1 µM
[33] = second compound 1 µM, first compound 0.316 µM
[34] = second compound 1 µM, first compound 1 µM
[35] = second compound 1 µM, first compound 3.16 µM
[36] = second compound 1 µM, first compound 10 µM

Work on C#Cc1c(F)ccc2cc(O)cc(-c3ncc4c(N5CC6CCC(C5)N6)nc(OCC56CCCN5CC(F)C6)nc4c3F)c12 (centres undefined) + CC(Nc1ccc2c(c1)OCCn1cc(N3C(=O)OCC3C(F)F)nc1-2)C(N)=O yielded an IC50 (second compound 0.00316 µM) of over 10 µM, an IC50 (second compound 0.01 µM) of over 10 µM and an IC50 (second compound 0.0316 µM) of 8.92 µM. It also gave an IC50 (second compound 0.1 µM) of 8 µM, an IC50 (second compound 0.316 µM) of 5.19 µM and an IC50 (second compound 1 µM) of 4.48 µM. For the same compound, the viability, T/C [1] was 94.9%, the viability, T/C [2] was 91% and the viability, T/C [3] was 86%. For the same compound, the viability, T/C [4] was 91.5%, the viability, T/C [5] was 88.2% and the viability, T/C [6] was 53.4%. It also gave a viability, T/C [7] of 95.7%, a viability, T/C [8] of 103% and a viability, T/C [9] of 83.3%. For the same compound, the viability, T/C [10] was 82%, the viability, T/C [11] was 89.2% and the viability, T/C [12] was 55.1%. It also gave a viability, T/C [13] of 91.4%, a viability, T/C [14] of 84.9% and a viability, T/C [15] of 88.3%. For the same compound, the viability, T/C [16] was 81.2%, the viability, T/C [17] was 81.9% and the viability, T/C [18] was 46.5%. It also gave a viability, T/C [19] of 84%, a viability, T/C [20] of 76.7% and a viability, T/C [21] of 72.1%. The viability, T/C [22] was 75.5%, the viability, T/C [23] was 73.9% and the viability, T/C [24] was 44.4%. For the same compound, the viability, T/C [25] was 93.1%, the viability, T/C [26] was 72% and the viability, T/C [27] was 81.1%. The viability, T/C [28] was 64.5%, the viability, T/C [29] was 65.7% and the viability, T/C [30] was 36.4%. For the same compound, the viability, T/C [31] was 89.1%, the viability, T/C [32] was 75.4% and the viability, T/C [33] was 82.1%. The viability, T/C [34] was 70.3%, the viability, T/C [35] was 59.2% and the viability, T/C [36] was 31.3%.
With C=CC(=O)N1CCN(c2nc(=O)n(-c3c(C)ccnc3C(C)C)c3nc(-c4c(O)cccc4F)c(F)cc23)C(C)C1 (centres undefined) + CC(Nc1ccc2c(c1)OCCn1cc(N3C(=O)OCC3C(F)F)nc1-2)C(N)=O the IC50 (second compound 0.00316 µM) was over 10 µM, the IC50 (second compound 0.01 µM) was over 10 µM and the IC50 (second compound 0.0316 µM) was over 10 µM. It also gave an IC50 (second compound 0.1 µM) of over 10 µM, an IC50 (second compound 0.316 µM) of over 10 µM and an IC50 (second compound 1 µM) of 7.86 µM. The viability, T/C [1] was 85.4%, the viability, T/C [2] was 92.4% and the viability, T/C [3] was 98.7%. For the same compound, the viability, T/C [4] was 107%, the viability, T/C [5] was 98.3% and the viability, T/C [6] was 82.5%. It also gave a viability, T/C [7] of 91.3%, a viability, T/C [8] of 101% and a viability, T/C [9] of 82.3%. The viability, T/C [10] was 101%, the viability, T/C [11] was 97.3% and the viability, T/C [12] was 73%. For the same compound, the viability, T/C [13] was 92.5%, the viability, T/C [14] was 95.3% and the viability, T/C [15] was 87.1%. For the same compound, the viability, T/C [16] was 86.8%, the viability, T/C [17] was 96.4% and the viability, T/C [18] was 66.1%. It also gave a viability, T/C [19] of 104%, a viability, T/C [20] of 82.5% and a viability, T/C [21] of 87.4%. For the same compound, the viability, T/C [22] was 102%, the viability, T/C [23] was 86% and the viability, T/C [24] was 59.6%. For the same compound, the viability, T/C [25] was 84.5%, the viability, T/C [26] was 66.2% and the viability, T/C [27] was 76.4%. The viability, T/C [28] was 91.4%, the viability, T/C [29] was 93.6% and the viability, T/C [30] was 55.9%. The viability, T/C [31] was 82.6%, the viability, T/C [32] was 93.9% and the viability, T/C [33] was 77.8%. It also gave a viability, T/C [34] of 84.7%, a viability, T/C [35] of 64% and a viability, T/C [36] of 46.3%.
